Data taken from patent publication US20180008587A1, “THIOHYDANTOIN ANDROGEN RECEPTOR ANTAGONISTS FOR THE TREATMENT OF CANCER” (Jaressen Pharmaceutica NV, priority 2016, published 2018).
Positions count from the first letter of the chain named. pEC50: −log10 of the molar value. Read-outs that look alike come from different tables or passages of the source.

Key:
Format in all cases: cell-based
[1] = biological target: T1, wild-type Androgen Receptor (AR-wt) (Homo sapiens, UniProt P10275); assay: LNCaP-AR-wt ANT reporter assay (ARE firefly luciferase, antagonist mode); details: for IC50: antagonist mode, 400 pM R-1881 challenge, −Log10(IC50 [Molar]), read-out: LNCaP-AR-wt ANT pIC50 (converted); for Emax: read-out: LNCaP-AR-wt ANT MAX % Inh
T1 construct: expressed in transfected cells; host or cells: LNCaP (LNCaP AR (cs))
T1 sequence (P10275 1-920): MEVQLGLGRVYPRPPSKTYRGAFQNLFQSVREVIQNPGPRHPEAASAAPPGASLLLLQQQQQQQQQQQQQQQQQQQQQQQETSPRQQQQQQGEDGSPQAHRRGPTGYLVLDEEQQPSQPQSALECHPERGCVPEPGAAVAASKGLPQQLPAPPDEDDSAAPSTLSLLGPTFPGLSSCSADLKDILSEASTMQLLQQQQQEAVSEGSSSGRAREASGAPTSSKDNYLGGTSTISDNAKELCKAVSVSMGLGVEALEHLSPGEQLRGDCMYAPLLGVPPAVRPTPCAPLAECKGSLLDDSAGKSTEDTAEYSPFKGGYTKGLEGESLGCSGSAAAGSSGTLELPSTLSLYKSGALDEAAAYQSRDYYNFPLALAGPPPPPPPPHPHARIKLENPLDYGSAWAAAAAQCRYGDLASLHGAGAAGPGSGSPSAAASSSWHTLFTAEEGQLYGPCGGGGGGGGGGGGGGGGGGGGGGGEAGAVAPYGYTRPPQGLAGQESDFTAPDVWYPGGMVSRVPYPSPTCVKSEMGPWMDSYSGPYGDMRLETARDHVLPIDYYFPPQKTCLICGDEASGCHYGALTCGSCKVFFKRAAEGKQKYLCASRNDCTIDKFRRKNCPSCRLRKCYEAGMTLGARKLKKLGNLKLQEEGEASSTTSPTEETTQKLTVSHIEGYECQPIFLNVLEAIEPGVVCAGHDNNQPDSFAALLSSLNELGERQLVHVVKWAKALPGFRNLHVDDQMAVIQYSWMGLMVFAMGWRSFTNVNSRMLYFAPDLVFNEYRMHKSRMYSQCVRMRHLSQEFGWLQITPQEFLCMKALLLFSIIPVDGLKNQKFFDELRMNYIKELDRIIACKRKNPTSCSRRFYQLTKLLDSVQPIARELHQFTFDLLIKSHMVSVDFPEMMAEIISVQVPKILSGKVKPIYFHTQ
In short: (§1)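 Read-out is luciferase luminescence taken 1 h after Steady-Glo addition, following 20-24 h compound exposure at 37 °C in LNCaP pools stably carrying wild-type or F876L AR. Cells were grown in charcoal-stripped serum. Antagonist wells received agonist at 400 pM (WT) or 600 pM (F876L).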

[2] = biological target: T1, wild-type Androgen Receptor (AR-wt); assay: LNCaP-AR-wt AG reporter assay (ARE firefly luciferase, agonist mode); details: for EC50: agonist mode, −Log10(EC50 [Molar]), read-out: LNCaP-AR-wt AG pEC50 (converted); for Emax: read-out: LNCaP-AR-wt AG MAX % Stim
In short: (§2)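 Puromycin-selected pooled LNCaP populations expressing AR-wt or AR-F876L are seeded in CSS medium and treated with compound for 20-24 h at 37 °C. For antagonist testing, agonist is added at 400 pM (WT) or 600 pM (F876L). Potency values derive from least-squares fitting of luminescence RLU.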

[3] = biological target: T2, F876L mutant Androgen Receptor (AR-F876L) (Homo sapiens, UniProt P10275, F877L); assay: LNCaP-AR-F876L ANT reporter assay (ARE firefly luciferase, antagonist mode); details: for Emax: read-out: LNCaP-AR-F876L ANT MAX % Inh; for IC50: read-out: LNCaP-AR-F876L ANT pIC50 (converted)
T2 construct: expressed in transfected cells; host or cells: LNCaP (LNCaP F876L)
T2 sequence (P10275 1-920 F877L): T1 sequence (P10275 1-920) with F877L
In short: as §1

[4] = biological target: T2, F876L mutant Androgen Receptor (AR-F876L); assay: LNCaP-AR-F876L AG reporter assay (ARE firefly luciferase, agonist mode); details: for EC50: agonist mode, −Log10(EC50 [Molar]), read-out: LNCaP-AR-F876L AG pEC50 (converted); for Emax: read-out: LNCaP-AR-F876L AG MAX % Stim
In short: as §2

[5] = maximum % inhibition of R1881 control response over tested concentration range
[6] = maximum % stimulation (agonist response) over tested concentration range

Compound | IC50 [1] [nM] | Emax [1, 5] [%] | EC50 [2] [nM] | Emax [2, 6] [%] | Emax [3, 5] [%] | IC50 [3] [nM] | EC50 [4] [nM] | Emax [4, 6] [%] | Emax [1] [%] | pEC50 [2] | Emax [2] [%] | Emax [3] [%] | pEC50 [4] | Emax [4] [%]
Cc1ccc(CNC(=O)c2ccc(N3C(=S)N(c4cnc(C#N)c(C(F)(F)F)c4)C(=O)C34CCC4)cc2F)o1 [Cpd 26, 4-[6-[6-cyano-5-(trifluoromethyl)-3-pyridyl]-5-oxo-7-thioxo-6,8-diazaspiro[3.4]octan-8-yl]-2-fluoro-N-[(5-methyl-2-furyl)methyl]benzamide] | 813 | 97.9 | > 15100 | 1.1 | 97.9 | 891 | > 15100 | 0.3 |  |  |  |  |  | 
N#Cc1ncc(N2C(=O)C3(CCC3)N(c3ccc(OCCCN4CCCC4)c(F)c3)C2=S)cc1C(F)(F)F [Cpd 55, 5-[8-[3-fluoro-4-(3-pyrrolidin-1-ylpropoxy)phenyl]-5-oxo-7-thioxo-6,8-diazaspiro[3.4]octan-6-yl]-3-(trifluoromethyl)pyridine-2-carbonitrile] | 813 |  |  |  |  | 316 |  |  | 101 | < 4.82 | 0.7 | 100 | < 4.82 | 0.6
N#Cc1ncc(N2C(=O)C3(CCC3)N(c3ccc(C(=O)NCc4cccnc4)c(F)c3)C2=S)cc1C(F)(F)F [Cpd 67, 4-[6-[6-cyano-5-(trifluoromethyl)-3-pyridyl]-5-oxo-7-thioxo-6,8-diazaspiro[3.4]octan-8-yl]-2-fluoro-N-(3-pyridylmethyl)benzamide] | 1260 |  |  |  |  | 407 |  |  | 99.2 | < 4.82 | 1.5 | 97.4 | < 4.82 | 0.8
N#Cc1ncc(N2C(=O)C3(CCC3)N(c3ccc(Oc4ccccn4)cc3)C2=S)cc1C(F)(F)F [Cpd 103, 5-[5-oxo-8-[4-(2-pyridyloxy)phenyl]-7-thioxo-6,8-diazaspiro[3.4]octan-6-yl]-3-(trifluoromethyl)pyridine-2-carbonitrile] | 562 |  |  |  |  | 107 |  |  | 29 | < 4.82 | 4 | 64.9 | < 4.82 | 2
N#Cc1ncc(N2C(=O)C3(CCC3)N(c3ccc(O)cc3F)C2=S)cc1C(F)(F)F [Cpd 47, 5-[8-(2-fluoro-4-hydroxy-phenyl)-5-oxo-7-thioxo-6,8-diazaspiro[3.4]octan-6-yl]-3-(trifluoromethyl)pyridine-2-carbonitrile] | 245 | 101 | > 15100 |  | 99.6 | 195 | > 15100 |  |  |  | 0.9 |  |  | 0.4
N#Cc1ncc(N2C(=O)C3(CCC3)N(c3ccc(C(=O)NCC4CCCC4)c(F)c3)C2=S)cc1C(F)(F)F [Cpd 21, 4-[6-[6-cyano-5-(trifluoromethyl)-3-pyridyl]-5-oxo-7-thioxo-6,8-diazaspiro[3.4]octan-8-yl]-N-(cyclopentylmethyl)-2-fluoro-benzamide] | 724 | 100 | > 15100 | -0.2 | 98.6 | 389 | > 15100 | 0.1 |  |  |  |  |  | 
Cc1cc(N2C(=O)C3(CCC3)N(c3ccc(OC4CCS(=O)(=O)CC4)cc3)C2=S)cnc1C#N [Cpd 6, 5-[8-[4-(1,1-dioxothian-4-yl)oxyphenyl]-5-oxo-7-thioxo-6,8-diazaspiro[3.4]octan-6-yl]-3-methyl-pyridine-2-carbonitrile] | 646 | 100 | > 15100 | 0.4 | 99.5 | 178 | > 15100 | 0 |  |  |  |  |  | 

Further lines, with some results ahead:

IC50 [1] [nM] | Emax [1, 5] [%] | EC50 [2] [nM] | Emax [2, 6] [%] | Emax [3, 5] [%] | IC50 [3] [nM] | EC50 [4] [nM] | Emax [4, 6] [%] | Compound | Emax [1] [%] | pEC50 [2] | Emax [2] [%] | Emax [3] [%] | pEC50 [4] | Emax [4] [%]
1100 | 101 | > 15100 | 0.4 | 99.4 | 158 | > 15100 | 3.9 | N#Cc1ncc(N2C(=O)C3(CCC3)N(c3ccc(C(=O)NCCCN4CCCC4)c(F)c3)C2=S)cc1C(F)(F)F [Cpd 118, 4-[6-[6-cyano-5-(trifluoromethyl)-3-pyridyl]-5-oxo-7-thioxo-6,8-diazaspiro[3.4]octan-8-yl]-2-fluoro-N-(3-pyrrolidin-1-ylpropyl)benzamide] |  |  |  |  |  | 
912 | 97 | > 15100 | 1 | 96.7 | 646 | > 15100 | 0.5 | N#Cc1ncc(N2C(=O)C3(CCC3)N(c3ccc(C(=O)NCc4ccc(Cl)cc4)c(F)c3)C2=S)cc1C(F)(F)F [Cpd 53, N-[(4-chlorophenyl)methyl]-4-[6-[6-cyano-5-(trifluoromethyl)-3-pyridyl]-5-oxo-7-thioxo-6,8-diazaspiro[3.4]octan-8-yl]-2-fluoro-benzamide] |  |  |  |  |  | 
1260 | 100 | > 15100 | 1.1 | 100 | 380 | > 15100 | 0.7 | CCN1CCC(Oc2ccc(N3C(=S)N(c4cnc(C#N)c(C)c4)C(=O)C34CCC4)cc2)CC1 [Cpd 61, 5-[8-[4-[(1-ethyl-4-piperidyl)oxy]phenyl]-5-oxo-7-thioxo-6,8-diazaspiro[3.4]octan-6-yl]-3-methyl-pyridine-2-carbonitrile] |  |  |  |  |  | 
851 | 99.7 | > 15100 | 0.5 | 97.8 | 832 | > 15100 | 0.4 | N#Cc1ncc(N2C(=O)C3(CCC3)N(c3ccc(OCCc4ncccn4)c(F)c3)C2=S)cc1C(F)(F)F [Cpd 56, 5-[8-[3-fluoro-4-(2-pyrimidin-2-ylethoxy)phenyl]-5-oxo-7-thioxo-6,8-diazaspiro[3.4]octan-6-yl]-3-(trifluoromethyl)pyridine-2-carbonitrile] |  |  |  |  |  | 
